“And” between values parts separate entries of the source, which are not always exact repeats. Equal values may be shown once.
What was measured:
Assay type in all cases: cell-based
melanoma TILs = test: Comparison of microfluidic chips and anti-CD3 antibody clones used in REP (mbIL-2/mbIL-12 expression); details: anti-CD3 clone used in REP culture; 4 hours post squeeze
Description: As described herein, TILs are often expanded to increase their number prior to their use in adoptive transfer studies Such expansion phase can involve the use of anti-CD3 antibodies to activate and induce the TILs to proliferate. Whether the specific anti-CD3 antibody clone used in the expansion phase was next assessed. Briefly, melanoma TILs were collected from REP cultures that contained different anti-CD3 clones (OKT3, SK7, HIT3a, or UCHT1). Following cell harvest, the post-REP TILs were resuspended at 40 million live cells/mL cell density as 2× concentration. The cells were mixed with equal volume of 2× mRNA solution and squeezed through various chip types (10-3.5-70 SF, 10-4-70 ST) and pressure (30 psi) at room temperature. Final concentration of cells was 20 million live cells/mL. Final mRNA concentration for squeeze was […] for each of mbIL-2 and mbIL-12 mRNA. Following the squeeze processing, cells were quenched in CTS OpTmizer media and spun immediately. […] The squeezed TILs were assessed at 4 hours post squeeze by flow cytometry for viability, cell composition, and surface levels of mbIL-2 and mbIL-12.

lung TILs = test: Comparison of anti-CD3 antibody concentration in pre-REP (mbIL-2/mbIL-12 and CD62L expression); details: 6 or 30 ng/mL anti-CD3 antibody (OKT3 clone) during pre-REP
Description: As described herein, in some aspects, prior to modifying the TILs, the TILs can undergo a first expansion phase (pre-REP) and a second expansion phase (REP). Whether the concentration of the anti-CD3 antibody during the first expansion phase has an effect in producing the modified TILs described herein, the following methods were used. Briefly, lung TILs underwent a pre-REP process in the absence or presence of 6 or 30 ng/mL anti-CD3 antibody (OKT3 clone). Then, the TILs were collected and further expanded in a REP process. Afterwards, the cells were resuspended at 40 million live cells/mL cell density as 2× concentration. The cells were mixed with equal volume of 2× mRNA solution and squeezed through 10-4-70 ST at 60 psi at room temperature. Final concentration of cells was 20 million live cells/mL. Final mRNA concentration for squeeze was […] for each of mbIL-2 and mbIL-12 mRNA. Following squeezing, cells were quenched in CTS OpTmizer media and spun immediately. […] The squeezed TILs were assessed at 4, 24, and 48 hours post squeeze by flow cytometry for viability, cell composition, surface levels of mbIL-2 and mbIL-12.

TILs = test: Effect of anti-CD3 antibody on TIL expansion from melanoma tumor fragments (NucleoCounter NC-200); details: for Cell Count on Day 13 / Viability on Day 13: 6,000 IU/mL recombinant IL-2, replicate wells
Description: Further to the data provided in Example 22, the effect of anti-CD3 antibody on TIL expansion was further assessed. Briefly, freshly resected melanoma tumor was rinsed in 1× Hank's Balanced Salt Solution (HBSS) with 10 μg/mL gentamicin and dissected into 8-27 mm^3 fragments using a forceps and scalpel. […] Five tumor fragments, 8-27 mm^3 in size, per well were added to the G-Rex6M plate. The G-Rex6M plate was then placed in a 37° C., 5% CO2 incubator for 4 days.
On day 4, the G-Rex6M plate was removed from the incubator. […] The G-Rex6M plate was returned to the 37° C., 5% CO2 incubator for an additional 9 days.
On day 13, the TILs were harvested and transferred to a 50 mL conical tube. The number and viability of the TILs was assessed using a NucleoCounter NC-200.

OKT3: anti-CD3 antibody clone used in TIL expansion
mbIL-2 and mbIL-12 expression (percentage of total cells and MFI) (melanoma TILs): higher expression
impact on translation kinetics of mbIL-2 and mbIL-12 expression (lung TILs): minimal impact
Cell Count on Day 13 (TILs; 6 ng/mL OKT3): 2.35 × 10^8 and 2.43 × 10^8
Viability on Day 13 (TILs; 6 ng/mL OKT3): 90.7% and 91.1%
Cell Count on Day 13 (TILs; 20 ng/mL OKT3): 2.00 × 10^8 and 2.17 × 10^8
Viability on Day 13 (TILs; 20 ng/mL OKT3): 90.5% and 91.6%
TIL expansion (TILs; 6 or 30 ng/mL of OKT3, day 13, compared to culture without OKT3): greater TIL expansion

From patent US20250327027A1, “METHODS TO GENERATE ENHANCED TUMOR INFILTRATING LYMPHOCYTES THROUGH MICROFLUIDIC DELIVERY” (STEMCELL TECHNOLOGIES CANADA INC., priority 2021, published 2025)
